Measurements from patent US20100112042A1, “Processes and Compositions for Liposomal and Efficient Delivery of Gene Silencing Therapeutics” (MDRNA, INC., priority 2008, published 2010).
Where no end group is shown, it is not given here.

Tests used:
[1] = system: dsRNA; assay: SYBR-GOLD Dye Binding Assay (peptide binding to RNAi-inducing agent); settings: FIG. 6; dsRNA 10 μg/ml, 10 mM hepes/5% dextrose pH 7.4
Method: The relative strength of the binding of a cationic peptide to an RNAi-inducing agent was measured with a dye binding assay.
The RNAi-inducing agent was prepared at 7.8 μl in 10 ml to make a 20 μg/ml stock, then 75 μl/well. A SYBR gold dilution was prepared at 3.75 μl in 15 ml for 1:4000 dilution for a 2.5× stock.
Peptides were dissolved in Hepes buffer with 5% dextrose and diluted. Peptides were further diluted so that 75 μl could be added to each well resulting in the desired N:P (ranging from 0-4). Peptides were assumed to have a purity of 50%, but actual peptide amount was unknown.
A SYBR-GOLD Dye Binding Assay was performed. A 96-well plate assay with sample volume of 150 μl per well. Final dsRNA concentration was 10 μg/ml in 10 mM hepes/5% dextrose at pH 7.4. Peptides were diluted into different working solutions such that equal volumes were added to reach different N/P ratios. For the addition procedure, dsRNA was first added (75 μl of 20 μg/ml), followed by […] of 2.5×SYBR Gold. Peptide ([…]) was then added to compete off the SYBR dye. Total volume was […]. Fluorescence was corrected from background of dye alone in buffer. SYBR-Gold ex/em was 495 nm/537 nm, read on Molecular Devices plate reader.

[2] = system: Cyclophilin B (PPIB); assay: In vitro assay for PPIB gene expression knockdown in A549 cells; assay type: cell-based, human; settings: for Knockdown (%) (vs dsRNA control): A549 cells, dsRNA DC4377 100 nM; for Knockdown (%) vs control / Knockdown (%) vs untransf: dsRNA DX4221 100 nM
Method: Cyclophilin B (PPIB) gene knockdown measurements can be used as a primary activity-based in vitro assay for interfering RNA delivery formulations. Typically, the measurements were made as described below, with minor variations.
Cyclophilin B (PPIB) gene expression knockdown was measured in A549 human alveolar basal epithelial cells. For PPIB gene knockdown measurements, A549 cells were transfected with an interfering RNA formulation, total RNA prepared 24 hours after transfection, and PPIB mRNA assayed by RT-PCR. QRT-PCR of 36B4 (acidic ribosomal phosphoprotein PO) mRNA expression was performed for normalization.
A549 cells were seeded at 7,500 cells/well (96-well) and incubated overnight in medium. Confluency was about 50% at the time of transfection. Transfection complex was prepared by adding an interfering RNA to medium (OptiMEM™) and vortexing, separately adding a delivery formulation to medium (OptiMEM™) and vortexing, and finally mixing the interfering RNA in medium with the delivery formulation in medium and incubating 20 minutes at room temperature to make the transfection complex. The medium for incubated cells was replaced with fresh OptiMEM™ and transfection complex was added to each well. Cells were incubated for 5 hrs at 37° C. and 5% CO2, then complete medium was added (to a final fetal bovine serum concentration 10%) and incubation continued until 24 hours post-transfection.
For PPIB gene knockdown cells were lysed and RNA prepared (Invisorb RNA Cell HTS 96-Kit/C, Invitek, Berlin, or RNeasy 96 Kit, Qiagen). Quantitative RT-PCR was performed using One-Step qRT-PCR kit (Invitrogen) on a DNA Engine Opticon2 thermal cycler (BioRad).
Primers used for PPIB were: […]

[3] = endosomolytic agent PN3033, binary N/P 5, final N/P 2.5
[4] = endosomolytic agent none, binary N/P 5
[5] = endosomolytic agent PN3033, binary N/P 4, final N/P 2.5
[6] = endosomolytic agent PN3033, binary N/P 4, final N/P 3.5
[7] = endosomolytic agent PN3033, binary N/P 5, final N/P 3.5
[8] = endosomolytic agent PN3033, binary N/P 5, final N/P 4.5

Sequence: RRRRRCCRRRRR (cysteine pairing not given here; also: dimer) [PN3499, dimer peptide containing a total of 10 arginines]
- binding to dsRNA (ability to displace SYBR-Gold dye) [1]: strongest binding

Sequence: WWHHKKRRCCRRKKHHWW [PN4110, triggered release peptide]
- Knockdown (%) (vs dsRNA control) [2, 3]: 65%
- Knockdown (%) (vs dsRNA control) ([2]; endosomolytic agent PN3033, binary N/P 10, final N/P 5): 63%
- Knockdown (%) (vs dsRNA control) [2, 4]: 0%
- Knockdown (%) vs control [2, 5]: 50%
- Knockdown (%) vs untransf [2, 5]: 55%
- Knockdown (%) vs control [2, 6]: 41%
- Knockdown (%) vs untransf [2, 6]: 36%
- Knockdown (%) vs control [2, 3]: 72%
- Knockdown (%) vs untransf [2, 3]: 70%
- Knockdown (%) vs control [2, 7]: 74%
- Knockdown (%) vs untransf [2, 7]: 72%
- Knockdown (%) vs control [2, 8]: 36%
- Knockdown (%) vs untransf [2, 8]: 40%
- Knockdown (%) vs control [2, 4]: 14%
- Knockdown (%) vs untransf [2, 4]: 11%
